Results taken from patent publication US9675574B2, “Composition comprising a combination of DHA and EPA for administration prior to commencement of chemotherapy” (Fresenius Kabi Deutschland GmbH, priority 2010, dated 2017).

Experiments:
[1] = test system: colorectal cancer cell lines, breast cancer cell lines and lung cancer cell lines; assay: Clonogenicity experiment with further tumor cell lines, pre- versus posttreatment (Example 7); type: cell-based; details: irradiation
Description: The experiment is carried out analogously with further tumor cell lines (colorectal cancer cell lines, breast cancer cell lines and lung cancer cell lines).

HT-29 = assay: 15-day clonogenicity experiment, treatment prior to versus after irradiation (Example 7); type: cell-based, human; details: treatment prior to irradiation (A) versus untreated controls (C) and treatment after irradiation (B); for formation of colonies: 20-100 μM, 48 h
Description: (§1) Human cancer cell lines (HT-29; ATCC number HTB-38) are cultured in Dulbecco's Modified Eagle's Medium (DMEM, product number D 5030, Sigma Chemie AG, Buchs, Switzerland) supplemented with 10% heat-inactivated fetal calf serum (FBS), 1 g/L D-glucose, 3.7 g/L sodium bicarbonate and 0.1 g/L penicillin-streptomycin (all additives from Life Technologies Inc., Grand Island, NY). The cells are cultured at 37° C. in a humidified atmosphere with a 5% CO2 content and kept in the exponential growth phase by twice weekly subculturing. The cultures are tested for mycoplasma infection using the MycoAlert Detection Kit (product number LT07-118, Cambrex, Verviers, Belgium).
The cytotoxic effect of treatment of the cells with DHA, EPA, MCTs and iron on irradiation of the cells at 0 Gy, 2 Gy, 4 Gy or 6 Gy is examined in a 15-day clonogenicity experiment.
Firstly, the influence of 0 μM, 20 μM, 50 μM or 100 μM DHA or EPA in the case of treatment of the cells (A) prior to the irradiation compared to the treatment of the cells after the irradiation (B) is determined. Cells untreated with EPA or DHA, which are also irradiated, serve as a control (C).
In the case of the cells which are treated with EPA or DHA prior to the irradiation (A), the culture medium of the cells is replaced with medium containing the relevant concentrations (0 μM, 20 μM, 50 μM or 100 μM) of DHA or EPA. The cells are cultured for 48 hours in the medium, and then irradiated with an individual radiation dose of 0 Gy (control), 2 Gy, 4 Gy or 6 Gy in an X-ray 6 MV instrument.
In the case of cells which are treated with EPA or DHA after the irradiation (B) and in the case of the control cells (C), a media change is carried out 48 hours prior to the irradiation; the cells receive normal culture medium. After 48 hours, the cells are irradiated with an individual radiation dose of 0 Gy (control), 2 Gy, 4 Gy or 6 Gy in an X-ray 6 MV instrument.
After the irradiation, the cells are then detached from the culture vessel by means of trypsinization (1× trypsin-EDTA, Life Technologies Inc., Grand Island, NY), resuspended and counted. The cells are subsequently serially diluted according to a standard protocol and seeded in 100×20 mm cell culture dishes containing 10 mL of medium in a cell count which leads to the formation of about 200 colonies. Cells of groups A and C are seeded in normal culture medium, and cells of group B are seeded in medium containing the relevant concentrations (0 μM, 20 μM, 50 μM or 100 μM) of DHA or EPA.
After 48 hours, all cells are subjected to a media change, after which all cells are cultured in normal culture medium.
After a total of 14 days of incubation at 37° C., the vessels are washed with phosphate-buffered saline (PBS, Life Technologies Inc., Grand Island, N.Y.), fixed, and stained with a 0.5% crystal violet solution in methanol/glacial acetic acid (3:1, v/v). The surviving cell fraction is calculated with reference to the untreated controls (S/S0).

[2] = test system: HT-29 colorectal cancer cells; assay: 15-day clonogenicity experiment, pretreatment before irradiation (Example 6); type: cell-based, human; details: 48 h pretreatment with 20 μM to 100 μM, irradiation 2 to 6 Gy
Description: as §1, with “HT-29 colorectal” for “Human”, “cells (ATCC” for “cell lines (HT-29; ATCC”, “were” for “are”, “N.Y.).” for “NY).”
The cytotoxic effect of a two-day (48 hours) pretreatment of HT-29 cells with 0 μM, 20 μM, 50 μM or 100 μM DHA or EPA on irradiation of the cells at 0 Gy, 2 Gy, 4 Gy or 6 Gy was examined in a 15-day clonogenicity experiment.
To this end, the culture medium of the cells was replaced with medium which contained the relevant concentrations (0 μM, 20 μM, 50 μM or 100 μM) of DHA or EPA. Controls were cultured in medium without EPA and without DHA. […] The cells were then detached from the culture vessel by means of trypsinization (1× trypsin-EDTA, Life Technologies Inc., Grand Island, N.Y.), resuspended and counted. […] The surviving cell fraction was calculated with reference to the untreated controls (S/S0).

Row | SMILES | cytotoxic effect of pretreatment compared to posttreatment [1] | size of colonies formed (HT-29) | surviving cell fraction (S/S0) (HT-29) | formation of colonies (HT-29) | effect on survival of HT-29 cells in combination with irradiation [2]
1 | CC/C=C\C/C=C\C/C=C\C/C=C\C/C=C\CCCC(=O)O [EPA, (5Z,8Z,11Z,14Z,17Z)-eicosa-5,8,11,14,17-pentaenoic acid] | greater cytotoxic effect | colonies formed are smaller | also smaller | fewer colonies | synergistic effect
2 | CC/C=C\C/C=C\C/C=C\C/C=C\C/C=C\C/C=C\CCC(=O)O [DHA, (4Z,7Z,10Z,13Z,16Z,19Z)-docosa-4,7,10,13,16,19-hexaenoic acid] | greater cytotoxic effect | colonies formed are smaller | also smaller | fewer colonies | synergistic effect
